In PubChem BioAssay (NCI) one finds GI50 and TGI data, which are given here for eight compounds.

What all share (experiment): inhibition of tumour cell growth, NCI panel, 48 h
The test system of assay [1] is DU-145 prostate.
Assay [2] concerns HCT-116 colon.
The test system of assay [3] is LOX IMVI melanoma.
Assay [4] has as its system NCI/ADR-RES ovarian.
Assay [5] concerns UACC-62 melanoma.
The subject of assay [6] is HL-60(TB) leukemia.
The subject of assay [7] is 786-0 renal.
Assay [8] concerns A549 NSCLC.
For assay [9], the system named is HOP-62 NSCLC.
The test system of assay [10] is MOLT-4 leukemia.

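Where inhibition never reached the appropriate level, the endpoint shown equals the highest concentration tested. Otherwise, values were interpolated linearly from a five-concentration, 48-hour dose response in 96-well plates. GI50 marks 50% less growth. TGI is the concentration that stops growth completely.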

Regarding `CCC(=O)NC1=C(Cl)C(=O)C(NC(=O)CC)=C(Cl)C1=O`, the GI50 in assay [1] is 9490 nM; in assay [2], 6890 nM; in [3], 16300 nM; in assay [4], 24000 nM; in [5], 29700 nM; in assay [6] it was 2420 nM. Besides, the GI50 in assay [7] is 18700 nM; in [8], 29400 nM; in [9] it was above 47700 nM; in assay [10] it was 9550 nM. The TGI in [1] was 22.3 µM; in [2], 17.3 µM; in assay [3] it was 31.2 µM; in assay [4], 58.6 µM; in assay [5] it was above 57.3 µM; in [6], above 23700 nM. For the same compound, the TGI in assay [7] was 33.4 µM; in assay [8], above 61.8 µM; in assay [9], above 65.1 µM; in assay [10] it was above 21.9 µM.
As to `O=C(Nc1cccc([N+](=O)[O-])c1)c1cccc(C(=O)Nc2cccc([N+](=O)[O-])c2)c1`, the GI50 in assay [1] was above 84200 nM; in [2], 41900 nM; in assay [3], above 100000 nM; in assay [4], above 100000 nM; in assay [5], above 100000 nM; in assay [6] it was above 100000 nM. Further, the GI50 in [7] was 25600 nM; in assay [8], above 100000 nM; in assay [9], 21900 nM; in assay [10] it was above 100000 nM. In addition, the TGI is above 100 µM in assay [1]; above 100 µM in assay [2]; above 100 µM in [3]; above 100 µM in [4]; above 100 µM in assay [5]; above 100000 nM in assay [6]. Moreover, the TGI in assay [7] is above 100 µM; in [8], above 100 µM; in assay [9], above 70.5 µM; in [10] it was above 100 µM.
For `O=C1/C=C/[C@@H](O)[C@@H]2C[C@@H](O)C[C@H]2/C=C/CCC[C@H](CCO)O1`, the GI50 in [1] was 426 nM; in assay [2], 215 nM; in assay [3] it was 157 nM; in [4] it was 176 nM; in assay [5] it was 186 nM; in assay [6], 315 nM. In addition, the GI50 in assay [7] was 36.2 nM; in assay [8], 401 nM; in assay [9], 237 nM; in [10] it was 358 nM. Moreover, the TGI in assay [1] was above 100 µM; in [2] it was 0.454 µM; in [3] it was 0.377 µM; in assay [5], above 100 µM; in assay [6], 1160 nM; in assay [7], 0.142 µM. The TGI in assay [8] was above 100 µM; in assay [9], above 31.6 µM.
In the case of `CN1CCN(Cc2ccc(NC(=O)c3cncc(C#Cc4ccc(N)nc4)c3)cc2C(F)(F)F)CC1`, the GI50 in [1] was 845 nM; in assay [2] it was 596 nM; in assay [3], 556 nM; in assay [4], 1900 nM; in [5] it was 945 nM; in assay [6], 945 nM. Moreover, the GI50 was 1760 nM in assay [7], 1380 nM in assay [8], 1300 nM in assay [9] and 1030 nM in assay [10]. Also, the TGI is 6.71 µM in assay [1]; 3.9 µM in [2]; 1.28 µM in assay [3]; 10.3 µM in [4]; 3.48 µM in assay [5]; 2250 nM in assay [6]. The TGI amounted to 6.83 µM in [7], 7.24 µM in assay [8], 6.08 µM in assay [9] and 6.82 µM in assay [10].
As to `Cc1ccc2ccccc2c1CSc1nc(N)nc2c1ncn2CC(C)C`, the TGI was above 100 µM in assay [1]; above 100 µM in assay [2]; above 100 µM in assay [3]; above 100 µM in assay [4]; above 100 µM in assay [5]; above 100000 nM in assay [6]. The TGI in assay [7] was above 100 µM; in [8] it was above 100 µM; in assay [9], above 100 µM; in assay [10], 29.7 µM.
Turning to `COC(=O)Nc1nc2ccc(C(=O)c3cccc(I)c3)cc2[nH]1`, the GI50 in assay [1] was 86.1 nM; in assay [2], 40.2 nM; in assay [3], 61.2 nM; in assay [4], 44.8 nM; in assay [5], 234 nM; in assay [6], 31.5 nM. Besides, the GI50 in [7] is 84.8 nM; in assay [8], 69.9 nM; in assay [9] it was 304 nM; in [10], 60.9 nM. In addition, the TGI came out at 1.76 µM in [1]; 13.8 µM in assay [2]; 3.92 µM in [3]; 1.54 µM in assay [4]; 18.1 µM in [5]; 163 nM in [6]. The TGI in [7] was determined as 6.15 µM; in assay [8], 15 µM; in assay [9], 38.5 µM; in assay [10], 10.6 µM.
Consider `COc1cc(OC)c(/C=C/C(=O)c2c(OC)cc(OC)cc2OC)c(OC)c1`, for which the GI50 in assay [1] is 2210 nM; in assay [2] it was 600 nM; in [3] it was 782 nM; in assay [4], 469 nM; in assay [5] it was 414 nM; in assay [6] it was 637 nM. Besides, the GI50 in assay [7] is 2020 nM; in assay [8], 1720 nM; in assay [9], 1270 nM; in assay [10] it was 1530 nM. The TGI in assay [1] worked out at 8.51 µM; in assay [2], 10.2 µM; in assay [3], 4.54 µM; in assay [4], 10 µM; in assay [5], 4.14 µM; in [6], 9440 nM. The TGI in assay [7] was above 74.7 µM; in assay [8] it was above 76.3 µM; in [9], above 100 µM; in assay [10], above 100 µM.
As for `CCN1CCN(C(=O)[C@]23CC[C@@H](C)[C@H](C)[C@@H]2C2=CC[C@@H]4[C@@]5(C)CCC(=O)C(C)(C)[C@@H]5CC[C@@]4(C)[C@]2(C)CC3)CC1`, the GI50 in assay [1] was 1670 nM; in [2], 798 nM; in assay [3], 821 nM; in assay [4], 1080 nM; in [5], 835 nM; in assay [6], 980 nM. Moreover, the GI50 is 814 nM in assay [7], 1470 nM in assay [8], 1380 nM in [9] and 809 nM in assay [10]. Also, the TGI in assay [1] was 5.62 µM; in assay [2], 1.57 µM; in [3] it was 1.52 µM; in assay [4] it was 3.24 µM; in assay [5] it was 1.61 µM; in assay [6], 2180 nM. The TGI stood at 1.7 µM in assay [7], 5.98 µM in [8], 3.09 µM in assay [9] and 1.99 µM in assay [10].
